Laboratory results taken from patent US20230103554A1, “TNFa SIGNALING [sequence] TUMOR-PROMOTING INFLAMMATION THAT CAN BE TARGETED TO THERAPY” (Baylor College of Medicine, priority 2020, published 2023).

Tests used:
[1] = tested on: CHLA-255-luc/monocyte xenografts; experiment: CHLA-255-luc/monocyte subcutaneous xenograft in NSG mice; format: in vivo, mouse
Description: (FIG. 16A) In vivo subcutaneous xenograft model. CHLA-255-luc and freshly isolated human monocytes were embedded in Matrigel and injected into the subcutaneous right flank of eight-week female NSG mice. […] (FIG. 16B) Luminescence readings for each mouse (n=10/group) measured in radiance (photons/second/cm2/steradian). (FIG. 16C) Graphical representation of total luminescence per tumor from (FIG. 16B) over time. (FIG. 16D) Mean tumor luminescence over time, two-way ANOVA with Bonferroni multiple comparisons test (n=10 per group). The top line is NB/Mon+Ctrl. (FIG. 16E) Representative tumors for each group following sacrifice at day 21. ** p<0.01;
Six-week old female NOD/SCID/IL-2Ry-null (NSG) mice were purchased from The Jackson Laboratory and maintained at the Baylor College of Medicine (BCM) animal care facility. At eight-weeks of age, mice were injected in the subcutaneous right flank with either 1×106 CHLA-255-luc (or SK-N-AS-luc) or a combination of 1×106 CHLA-255-luc and 1×10^6 human monocytes (or SK-N-AS-luc/monocyte) embedded in growth factor-reduced Matrigel (Corning) as previously described (54). […] Tumor growth was measured indirectly by weekly bioluminescent imaging (Small Animal Imaging Core Facility, Texas Children's Hospital). After three weeks, mice were euthanized and tumors were saved for IHC (see Tumor IHC) and RNA-seq (see RNA Analysis).

[2] = tested on: NF-κB signaling in monocytes; experiment: Intracellular IκBα in monocyte population of co-culture (PhosFlow flow cytometry); format: cell-based, human; conditions: 10 μg/mL etanercept
Procedure: (§1) Monocytes were directly cultured with wild-type or TNF, TNFR1, TNFR2 KO NB cell lines in ULA plates for 24 hours. Activation of NF-kB in monocytes and NB was measured by flow cytometry and cytokine production measured by ELISA from co-culture supernatant. To evaluate the contact-dependence of monocyte activation by NB, monocytes were cultured in ULA plates with seven-day NB conditioned medium mixed 1:1 with complete monocyte medium for 24 hours and analyzed for IL-6 production. To assess the growth advantage of NB cultured with monocytes, NB-luc cell lines and monocytes were seeded in tissue culture-treated white 96-well plates (1:1 ratio) and cultured for four days. Luminescence was measured using a TECAN Spark plate reader (TECAN). To evaluate changes in proliferation, NB was pulsed for 10 minutes in CellTrace Violet (2 μM, Invitrogen) and seeded at 100,000 cells per well in a 12-well tissue culture-treated plate. Monocytes were added directly to the NB monolayer at a density of 100,000 per well and incubated for four days. CellTrace Violet expression was analyzed by flow cytometry.
(§2) To evaluate the expression of TNFα in NB and monocytes, cells were first stimulated with LPS (50 ng/mL) in the presence of GolgiStop (BD Biosciences) and fixed using CytoFix/Cytoperm buffer (BD Biosciences). Cells were then stained with TNFα-PE (BD Biosciences). To evaluate the expression of TNFR1 and TNFR2 on NB and monocytes, cells were stained with TNFR1-BV421 and TNFR2-APC (BD Biosciences) in FACS staining buffer containing 0.05% sodium azide to prevent receptor/antibody processing. To estimate changes in NF-kB expression, treated co-cultures were first stained with ZombieViolet (1 μL/test, Biolegend) to counterstain dead cells and APC-H7 CD45 and/or FITC-CD14 to label monocytes for 20 minutes at room temperature. […] All flow samples were run using an LSRII 5-laser flow cytometer (Texas Children's Hospital Cancer Center Flow Cytometry Core, Houston, Tex.) and analyzed using FlowJo Software (Treestar).

[3] = tested on: NF-κB signaling in NB cells; experiment: Intracellular IκBα in NB population of co-culture (PhosFlow flow cytometry); format: cell-based, human
Procedure: as §1, §2

[4] = tested on: SK-N-AS-luc/monocyte xenografts; experiment: SK-N-AS-luc/monocyte subcutaneous xenograft in NSG mice; format: in vivo, mouse
Procedure: Luciferase-labeled NB and freshly isolated human monocytes were embedded in Matrigel and injected into the subcutaneous right flank of 8-week female NSG mice. […] (FIG. 9A) Tumor growth was tracked indirectly through luminescence imaging using IVIS Imaging system. (FIG. 9B) Average tumor luminescence of each group over time. After 3 weeks, mice were sacrificed and the tumor size was analyzed directly by weight. The bottom line is NB+Mono+FcTNFR and the top line is NB+Mono+IgG. (FIG. 9C) Representative image of 5 tumors from each group. (FIG. 9D) Tumor weight by group after Log10 transformation of weight (in mg). * p<0.05, ** p<0.01;
(FIG. 27A) SK-N-AS-luc and freshly isolated human monocytes were embedded in matrigel and injected into the subcutaneous right flank of eight-week female NSG mice. […] Representative luminescence images (Ctrl n=7, Etan n=13) measured in radiance (photons/second/cm2/steradian). (FIG. 27B) Graphical representation of total luminescence per tumor from (A) over time. (FIG. 27C) Mean tumor total luminescence over time, two-way ANOVA with Bonferroni multiple comparisons test (Ctrl n=7, Etan n=13); NB/Mon+Ctrl line is on top. (FIG. 27D) Representative tumors for each group following sacrifice at day 21. * p<0.05; […]

[5] = tested on: monocyte IL-6 production; experiment: NB-monocyte co-culture, IL-6 ELISA of supernatant; format: cell-based, human; conditions: 24 hours
Procedure: as §1
Cytokines released by monocytes were detected within co-culture supernatants using the Human TNF-alpha Quantikine ELISA Kit (TNFα, R&D Systems) and the Human IL-6 Quantikine ELISA Kit (IL-6, R&D Systems) according to manufacturer's guidelines. ELISA plates were read using a TECAN Spark plate reader (TECAN). Global cytokine regulation was evaluated using a custom Luminex panel containing the following cytokines: CX3CL1, CXCL10, EGF, FGF-2, Flt3L, G-CSF, GM-CSF, IL-1α, IL-1β, IL-1Ra, IL-4, IL-6, IL-8, IL-10, IL-12 (p40), IL-12 (p′70), M-CSF, MCP-1, MCP-3, MDC, MIP-1α, MIP-1β, TGFα, TNFα, TNFβ, and VEGF-A (Human Cytokine Panel A, Millipore-Sigma).

[6] = 5 mg/kg (100 μg) i.p. bi-weekly, vs IgG control

etanercept
reduction of tumor growth (luminescence) [1, 6]: 65%
macroscopic blood vessel development of treated tumors ([1]; etanercept bi-weekly, vs control tumors): appeared to lack blood vessel development
reversal of IκBα degradation in monocytes ([2]; CHLA-255 + monocytes, 24 hours (FIG. 15C)): complete
IκBα levels in monocytes ([2]; SK-N-AS + monocytes, 24 hours): increasing monocyte levels of IκBα
reversal of IκBα degradation in NB ([3]; CHLA-255 + monocytes, 10 μg/mL etanercept, 24 hours (FIG. 15D)): partial
IκBα levels in NB cells ([3]; SK-N-AS + monocytes, etanercept, 24 hours): restored IκBα levels to the levels found in NB cells cultured alone
reduction of tumor growth (luminescence) [4, 6]: 30%
growth of tumors ([4]; SK-N-AS + monocytes in Matrigel, 100 μg bi-weekly, vs IgG control (FIG. 9)): significantly decreased the growth of tumors
IL-6 production ([5]; CHLA-255 + monocytes, 10 μg/mL etanercept, vs IgG control (FIG. 15B)): almost entirely blocked
IL-6 level in co-culture supernatant ([5]; SK-N-AS + monocytes, vs IgG control): decrease
